Test system: FUGW virus
Test: Intravaginal treatment of FUGW virus with ODN A, lavage, real-time PCR
Assay type: in vivo, C57BL/6 mice
Details: 25 μM ODN, 4 h in the vagina
Source text: In order to analyse the efficiency of the ODN A in the vagina, we used a recombinant retrovirus vector (FUGW) and placed the virus with and without ODN A into the vagina. We recover the virus by lavage and tested the RNA copies by real-time PCR. […] Two different virus concentration were used. The effect can be approved due by adaptation to mucosal condition of the vagina.
The FUGW virus was used, which is a recombinant retrovirus on the basis of HIV but with safety properties. It contains a PPT identical to HIV. The virus was prepared as described (Lois C., Hong E. J., Pease S., Brown E. J. and Baltimore D. (2002). “Germline Transmission and Tissue-Specific Expression of Transgenes Delivered by Lentiviral Vectors”, Science 295, 868-872).
The incubation was followed by a lavage of the vagina. Then lavage samples from the vagina were collected for RNA extraction using QIAamp viral RNA kit. RNA were eluted in 30 μl elution buffer. For reverse transcription, 2 μl RNA were used in 12.5 μl volume and 3 μl of the cDNA were used for real time PCR. Virus reduction is dependent on the ratio of ODN A to virus titer and the reduction is 2 fold for 10^4 IU.

TTTTCTTTTGGGGGGTTTGGTTGGGTTTTCCCTTCCAGTCCCCCCTTTTCTTTT (phosphorothioate linkages, further chemistry not given here) [ODN A, 25 mer antisense and 25 mer passenger strand connected by T4, phosphorothioated at each end and in linker, targeted to extended PPT of HIV-1]
reduction of virus RNA copies / titer recovered by lavage: twofold | reduction of virus RNA copies / titer recovered by lavage (listed as ODNA A): factor of two | virus reduction (10^4 IU FUGW-virus): 2 fold

Source: patent US20160281089A1, “PREVENTION OF VIRAL INFECTIVITY” (priority 2005, published 2016)
